From BindingDB's records for doi:10.7270/Q2TX3CTT (Broad Institute, 2010)

target: Glycogen synthase kinase-3 beta (Homo sapiens, UniProt P49841); test: GSK3beta kinase inhibitor potency, dose response, biochemical, luminescence, cell-free homogeneous, retest (AID 434954)
Sequence (P49841 whole entry): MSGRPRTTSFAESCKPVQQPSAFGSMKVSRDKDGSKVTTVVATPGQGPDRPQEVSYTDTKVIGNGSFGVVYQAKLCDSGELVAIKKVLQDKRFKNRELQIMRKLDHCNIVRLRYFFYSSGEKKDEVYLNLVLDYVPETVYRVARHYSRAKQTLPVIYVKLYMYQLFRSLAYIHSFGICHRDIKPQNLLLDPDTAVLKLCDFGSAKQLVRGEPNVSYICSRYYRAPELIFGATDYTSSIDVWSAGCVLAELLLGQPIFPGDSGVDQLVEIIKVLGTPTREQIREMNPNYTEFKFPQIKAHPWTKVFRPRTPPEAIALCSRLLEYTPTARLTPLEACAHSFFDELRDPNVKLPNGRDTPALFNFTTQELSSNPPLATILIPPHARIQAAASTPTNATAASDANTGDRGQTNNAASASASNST

Row | SMILES | EC50 [µM]
1 | Cc1ccnc(NC(=O)C2CC(=O)N(c3ccc4c(c3)OCCO4)C2)c1 (stereo not drawn) [SMR000709078] | 25.6
2 | Cc1ncc(C=C2C(=O)Nc3ccccc32)[nH]1 [3-[(Z)-(2-methyl-1H-imidazol-4-yl)methylidene]-1H-indol-2-one] | > 300
3 | Nc1nc(Nc2ccccc2)nc(NC2CCCCC2)c1[N+](=O)[O-] [N4-cyclohexyl-5-nitro-N2-phenylpyrimidine-2,4,6-triamine] | 7.68
4 | O=C(O)Cc1sc(N[N-][CH+]c2ccc(-c3ccc(Cl)c([N+](=O)[O-])c3)o2)nc1O [MLS000689975] | > 300
5 | CCC1(C)NC(=O)N(CC(=O)Nc2sc3c(c2C(N)=O)CCC3)C1=O (stereo not drawn) [2-[2-[4-ethyl-4-methyl-2,5-bis(oxidanylidene)imidazolidin-1-yl]ethanoylamino]-5,6-dihydro-4H-cyclopenta[b]thiophene-3-carboxamide] | 30.3
6 | CC(C)(C)C(=O)c1sc(Nc2ccccc2)nc1N [1-(4-amino-2-anilino-1,3-thiazol-5-yl)-2,2-dimethyl-1-propanone] | 1
7 | CCO[C@H]1OC(C(=O)N2CCN(Cc3ccccc3)CC2)=C[C@@H](C)[C@@H]1CCCO | > 300
8 | CN(C)c1nc(-c2ccccc2)nc(-c2ccc(Cl)cc2)c1C#N [4-(4-chlorophenyl)-6-(dimethylamino)-2-phenylpyrimidine-5-carbonitrile] | > 300
9 | O=C1CN=C(c2ccccc2)c2c(sc3c2CCCC3)N1 | 27.8
10 | O=C(Cn1nnc(-c2ccccc2)n1)NN=Cc1ccc(-c2ccc(Cl)cc2)o1 [N'-{[5-(4-chlorophenyl)-2-furyl]methylene}-2-(5-phenyl-2H-tetrazol-2-yl)acetohydrazide] | > 300
11 | COc1ccc(C(=O)c2sc(Nc3ccccc3F)nc2N)cc1 | 1.48
12 | O=C(Cn1cc2c(n1)CCCCC2)NC1CCN(Cc2ccccc2)CC1 [N-(1-benzylpiperidin-4-yl)-2-(5,6,7,8-tetrahydro-4H-cyclohepta[c]pyrazol-2-yl)acetamide] | > 300
13 | Nc1nc(Nc2ccccc2F)sc1C(=O)c1ccccc1 [[4-amino-2-(2-fluoroanilino)-1,3-thiazol-5-yl]-phenylmethanone] | 0.622
14 | CC(C(=O)Nc1nc2ccccc2s1)n1cc([N+](=O)[O-])cn1 (stereo not drawn) [SMR000307349] | > 300
15 | O=C(O)Cn1c(=O)c2c3c(sc2n(Cc2ccccc2F)c1=O)CCCC3 [SMR000544593] | > 300
16 | CCn1c(SCC(=O)Nc2ccc(F)cc2)nnc1C1CC1 [2-[(5-cyclopropyl-4-ethyl-1,2,4-triazol-3-yl)sulfanyl]-N-(4-fluorophenyl)ethanamide] | > 300
17 | CC1=C(C(=O)Nc2ccccc2F)C(c2ccsc2)C2C(=O)CC(C)(C)CC2=N1 (stereo not drawn) [N-(2-fluorophenyl)-2,7,7-trimethyl-5-oxo-4-(3-thiophenyl)-1,4,6,8-tetrahydroquinoline-3-carboxamide] | > 300
18 | CCCCC(=O)Nc1ncc(Br)s1 [MLS000066333] | 4.13
19 | O=C1N=C(Nc2ccccc2)SC1=Cc1cccnc1 [MLS000768418] | > 300
20 | CCSc1ccc2nnc(-c3cccc(F)c3)n2n1 [6-(ethylthio)-3-(3-fluorophenyl)-[1,2,4]triazolo[4,3-b]pyridazine] | 18.7
21 | O=C(Nc1cccc(F)c1)c1cccc2c1C(=O)N(C1CCCCC1)C2 [MLS000912875] | > 300
22 | CC(=O)Nc1cccc2c1C(=O)NC2=O [N-(1,3-dioxoisoindol-4-yl)acetamide] | 31.7
23 | COCc1c(C(N)=O)nnn1-c1nonc1N [MLS000089737] | > 300

Row | SMILES | EC50 [µM]
24 | CCn1cc(CN2CCC(n3nccc3NC(=O)CCCc3ccccc3)CC2)cn1 [N-[2-[1-[(1-ethylpyrazol-4-yl)methyl]piperidin-4-yl]pyrazol-3-yl]-4-phenyl-butanamide] | > 300
25 | COc1ccc(N2C(=O)C3CCCN3C2c2ccccc2F)cc1 (stereo not drawn) [MLS000117169] | > 300
26 | CN(Cc1c(C(=O)NN=Cc2ccccc2F)nnn1-c1nonc1N)c1ccccc1 [MLS001141029] | > 300
27 | CC1=NC(=O)NC(c2ccc(O)cc2)C1C(=O)OCC1CCCO1 (stereo not drawn) | > 300
28 | CN1CCN(c2nc(-c3ccccc3)nc(-c3ccccc3)c2C#N)CC1 [4-(4-methylpiperazin-1-yl)-2,6-diphenyl-pyrimidine-5-carbonitrile] | > 300
29 | Cc1cnc(NC(=O)c2sc(Nc3ccccc3)nc2N)o1 [MLS000762724] | 9.59
30 | COc1cc2c(cc1O)C[C@H]1NCCc3cc4c(c-2c31)OCO4 [SMR000156298] | 16.3
31 | c1ccc(Nc2ccnc(Nc3ccccc3)n2)cc1 [N*2*,N*4*-Diphenyl-pyrimidine-2,4-diamine] | 37.6
32 | COc1cc(CN=Nc2ccc(C(F)(F)F)cn2)ccc1O [(4E)-2-methoxy-4-[[[5-(trifluoromethyl)-2-pyridinyl]hydrazo]methylidene]-1-cyclohexa-2,5-dienone] | 10.1
33 | O=C1Nc2cc(C(=O)NCC3CCCO3)ccc2S/C1=C/c1ccccc1F (stereo not drawn) | > 300
34 | CCOC(=O)c1cnc2ccc(OC)cc2c1NCCN1CCOCC1 [SMR000518517] | > 300
35 | CCN(CC)S(=O)(=O)c1ccc(O)c(C(=O)OCC(=O)Nc2cc(C)c(C)cc2[N+](=O)[O-])c1 | > 300
36 | N#Cc1c2n(c3c(N)ncnc13)CCCCC2 [4-Amino-6,7,8,9-tetrahydro-5H-1,3,4b-triaza-benzo[a]azulene-10-carbonitrile] | > 300
37 | Cc1cc(CNC(=O)c2cc(COc3c(F)cccc3F)on2)nn1C [MLS000734261] | > 300
38 | COCCn1c(SCC(=O)Nc2ccc(Cl)c(S(=O)(=O)N(C)C)c2)nc2ccccc21 [MLS000536225] | > 300
39 | COc1ccc2nc(C)cc(N3CCN(c4ccccc4)CC3)c2c1 [SMR000595708] | 29.5
40 | CCn1nc(NC(=O)C2CCCO2)c2cc3cc(C)ccc3nc21 (stereo not drawn) [N-(1-ethyl-6-methyl-pyrazolo[3,4-b]quinolin-3-yl)oxolane-2-carboxamide] | > 300
41 | O=NCc1cn(CCC(=O)O)nc1-c1cccc([N+](=O)[O-])c1 [SMR000371064] | 7.38
42 | Cc1ncsc1CCSc1nc2ccccc2c(=O)n1C [3-methyl-2-{[2-(4-methyl-1,3-thiazol-5-yl)ethyl]thio}-4(3H)-quinazolinone] | 18.8
43 | O=c1c(-c2ccccc2)c(-c2ccccc2)oc2cc(O)cc(O)c12 | 24.6
44 | COc1ccc(OCCN(C)Cc2ccccc2)cc1 | > 300
45 | CC(C)OC(=O)c1nnn(-c2nonc2N)c1CSc1ccccn1 [1-(4-amino-1,2,5-oxadiazol-3-yl)-5-[(2-pyridinylthio)methyl]-4-triazolecarboxylic acid propan-2-yl ester] | 54.1
46 | COc1ccc2nc3c(cc2c1)c(NC(=O)C1CCCO1)nn3CC(C)C (stereo not drawn) [N-[6-methoxy-1-(2-methylpropyl)-3-pyrazolo[3,4-b]quinolinyl]-2-oxolanecarboxamide] | 0.946

Row | SMILES | EC50 [µM]
47 | O=Cc1ccc(N2CCCC2)c([N+](=O)[O-])c1 [SMR000383989] | > 300
48 | c1ccc(Nc2nc(-c3ccncc3)nc3ccccc23)cc1 | 22
49 | COC(=O)c1ccc(NC(C(=O)OC)C(C)C)c([N+](=O)[O-])c1 (stereo not drawn) [methyl 4-[(1-methoxy-3-methyl-1-oxidanylidene-butan-2-yl)amino]-3-nitro-benzoate] | > 300
50 | C=CCN1C(=O)C(Cc2ccc(Br)cc2)SC1=NN=Cc1ccco1 (stereo not drawn) | > 300
51 | COc1cccc(/C=C2/Sc3ccc(C(=O)NCCCN4CCCC4)cc3NC2=O)c1 | 2.82
52 | CC(C)CCNc1nc(N)c([N+](=O)[O-])c(NCCO)n1 [2-[[6-amino-2-(3-methylbutylamino)-5-nitropyrimidin-4-yl]amino]ethanol] | 6.82
53 | O=C(NCCCN1CCN(Cc2ccccc2)CC1)C1CCN(S(=O)(=O)N2CCCC2)CC1 [N-[3-[4-(phenylmethyl)-1-piperazinyl]propyl]-1-(1-pyrrolidinylsulfonyl)-4-piperidinecarboxamide] | > 300
54 | CC(C)Cn1nc(NC(=O)C(C)(C)C)c2cc3ccccc3nc21 [MLS000081069] | 71.4
55 | O=c1cc(-c2ccccc2Cl)oc2c(NS(=O)(=O)c3cccs3)ccc(O)c12 [MLS000518499] | > 300
56 | COC(=O)c1nnn(-c2nonc2N)c1CSc1nnc(N)s1 [1-(4-amino-1,2,5-oxadiazol-3-yl)-5-[[(5-amino-1,3,4-thiadiazol-2-yl)thio]methyl]-4-triazolecarboxylic acid methyl ester] | 40
57 | CC(OC(=O)c1nsc(Cl)c1Cl)C(=O)NCc1ccco1 (stereo not drawn) [MLS000074009] | > 100
58 | COc1ccccc1Nc1nc(NCCC(C)C)nc(N)c1[N+](=O)[O-] [N'-(2-Methoxy-phenyl)-N-(3-methyl-butyl)-5-nitro-pyrimidine-2,4,6-triamine] | 0.584
59 | CC(O)c1cccc(NC2=CC(=O)CC(C)(C)C2)c1 (stereo not drawn) | > 300
60 | CC1(C)CC(=O)C2C(=Nc3[nH]c(=S)[nH]c(=O)c3C2c2ccccc2)C1 (stereo not drawn) [8,8-dimethyl-5-phenyl-2-sulfanylidene-5,7,9,10-tetrahydro-1H-pyrimido[4,5-b]quinoline-4,6-dione] | > 300
61 | CCOC(=O)c1sc(NC(=O)CCN2C(=O)c3cccc([N+](=O)[O-])c3C2=O)c(C(=O)OCC)c1C [3-methyl-5-[[3-(4-nitro-1,3-dioxo-2-isoindolyl)-1-oxopropyl]amino]thiophene-2,4-dicarboxylic acid diethyl ester] | > 300
62 | Nc1nc(Nc2cccc(F)c2)nc(NCCO)c1[N+](=O)[O-] [2-[[6-amino-2-(3-fluoroanilino)-5-nitro-4-pyrimidinyl]amino]ethanol] | 114
63 | COc1ccc(-c2cc(C(F)(F)F)nc(SCCC(=O)N3CCOCC3)n2)cc1 [3-[4-(4-methoxyphenyl)-6-(trifluoromethyl)pyrimidin-2-yl]sulfanyl-1-morpholin-4-ylpropan-1-one] | > 300
64 | COc1ccccc1/C=C1\C(=O)Nc2ccccc21 [SMR000523491] | > 300
65 | O=[N+]([O-])c1ccccc1Oc1ccccc1Cl | > 300
66 | Cc1ccc(CN=Nc2ncnc3nc[nH]c23)cc1 [MLS000419179] | 30.1
67 | N#CC1=C2SCN(Cc3ccccc3)CN2C(=O)CC1c1cccs1 (stereo not drawn) | 7.88
68 | Cc1cc(N2CCC(C)CC2)nc(-c2ccccc2O)n1 [(6E)-6-[6-methyl-4-(4-methyl-1-piperidinyl)-1H-pyrimidin-2-ylidene]-1-cyclohexa-2,4-dienone] | > 300
